{
  "source": "patent US20250353815A1",
  "about": "“AMINO ACID HAVING FLUORINE AT a-POSITION, AND DERIVATIVE OF SAME” (SynCrest Inc., priority 2022, published 2025)",
  "origin": "cited, not measured here",
  "key": {"DNA methyltransferase [1]": {"tested_on": "DNA methyltransferase"}, "DNA methyltransferase [2]": {"target": "DNA methyltransferase", "settings": "inhibition of DNA methyltransferase"}},
  "data": [
    {"smiles": "O=C(O)[C@H](Cc1c[nH]c2ccccc12)N1C(=O)c2ccccc2C1=O", "note": "[RG-108, N-phthalyl-L-tryptophan]", "values": [
      {"measurement": "reprogramming of somatic cells into iPS cells", "setting": "human somatic cells", "value": "promotes the reprogramming"},
      {"measurement": "binding to the active site of the enzyme in molecular modeling", "setting": "DNA methyltransferase [1]", "value": "bind directly to the active site of the enzyme"},
      {"measurement": "IC50", "setting": "DNA methyltransferase [2]", "value": 115, "unit": "nM"},
      {"measurement": "reprogramming of somatic cells into iPS cells", "setting": "mouse somatic cells", "value": "promotes the reprogramming"}
    ]}
  ]
}
